# System: patients with treatment-resistant major depressive disorder (TRD)
# Assay: Phase 1/2 clinical trial of inhaled 5-MeO-DMT in TRD
# Details: for patients with at least one ADR: n=4
# Method: This trial was designed in two parts. Part A was an open-label, single-arm, single-dose Phase 1 trial with two dose levels (12 mg (n=4) and 18 mg (n=4)). […] The primary endpoint of Part B was to assess the effects on the severity of depression, as assessed by the proportion of patients in remission on day seven after dosing, defined as a MADRS total score of less than or equal to 10.
# [1] = 12 mg group n=4, sum of patient scores, 2 hours after dose
# [2] = 12 mg group n=4, sum of patient scores, 3 hours after dose
# [3] = 12 mg group n=4, sum of patient scores, baseline
# [4] = 12 mg group n=4, sum of patient scores, day 1
# [5] = 12 mg group n=4, sum of patient scores, day 7
# [6] = IDR group n=8, sum of patient scores, 2 hours after last dose
# [7] = IDR group n=8, sum of patient scores, 3 hours after last dose
# [8] = IDR group n=8, sum of patient scores, baseline
# [9] = IDR group n=8, sum of patient scores, day 1
# [10] = IDR group n=8, sum of patient scores, day 7
compound,measurement,setting,value
COc1ccc2[nH]cc(CCN(C)C)c2c1 [5-MeO-DMT],BPRS Anxiety percentage improvement,"12 mg group n=4, day 7",76.00%
same,MADRS Pessimistic Thoughts percentage improvement,"12 mg group n=4, day 7",50.00%
same,MADRS Reduced Sleep percentage improvement,"12 mg group n=4, day 7",50.00%
same,MADRS Concentration Difficulties improvement,[1],9
same,MADRS Inability to Feel improvement,[1],7
same,MADRS Inner Tension improvement,[1],11
same,MADRS Lassitude improvement,[1],6
same,MADRS Lassitude score,[1],10
same,MADRS Pessimistic Thoughts improvement,[1],8
same,MADRS Suicidal Thoughts improvement,[1],5
same,MADRS Suicidal Thoughts score,[1],3
same,BPRS Anxiety improvement,[2],14
same,BPRS Blunted Affect improvement,[2],3
same,BPRS Emotional Withdrawal improvement,[2],2
same,BPRS Guilt Feelings improvement,[2],9
same,BPRS Tension improvement,[2],5
same,BPRS Anxiety score,[3],25
same,BPRS Blunted Affect score,[3],11
same,BPRS Emotional Withdrawal score,[3],13
same,BPRS Guilt Feelings score,[3],18
same,BPRS Tension score,[3],14
same,MADRS Concentration Difficulties score,[3],16
same,MADRS Inability to Feel score,[3],16
same,MADRS Inner Tension score,[3],13
same,MADRS Lassitude score,[3],16
same,MADRS Pessimistic Thoughts score,[3],16
same,MADRS Reduced Sleep score,[3],12
same,MADRS Suicidal Thoughts score,[3],8
same,BPRS Anxiety improvement,[4],19
same,BPRS Blunted Affect improvement,[4],5
same,BPRS Emotional Withdrawal improvement,[4],5
same,BPRS Emotional Withdrawal score,[4],8
same,BPRS Guilt Feelings improvement,[4],13
same,BPRS Tension improvement,[4],8
same,MADRS Concentration Difficulties improvement,[4],14
same,MADRS Inability to Feel improvement,[4],15
same,MADRS Inner Tension improvement,[4],10
same,MADRS Lassitude improvement,[4],16
same,MADRS Lassitude score,[4],0
same,MADRS Pessimistic Thoughts improvement,[4],9
same,MADRS Pessimistic Thoughts score,[4],7
same,MADRS Reduced Sleep improvement,[4],2
same,MADRS Suicidal Thoughts improvement,[4],3
same,BPRS Anxiety improvement,[5],19
same,BPRS Blunted Affect improvement,[5],6
same,BPRS Emotional Withdrawal improvement,[5],7
same,BPRS Guilt Feelings improvement,[5],13
same,BPRS Guilt Feelings score,[5],5
same,BPRS Tension improvement,[5],8
same,MADRS Concentration Difficulties improvement,[5],13
same,MADRS Inability to Feel improvement,[5],15
same,MADRS Inability to Feel score,[5],1
same,MADRS Inner Tension improvement,[5],8
same,MADRS Lassitude improvement,[5],13
same,MADRS Lassitude score,[5],3
same,MADRS Pessimistic Thoughts improvement,[5],8
same,MADRS Pessimistic Thoughts score,[5],8
same,MADRS Reduced Sleep improvement,[5],6
same,MADRS Suicidal Thoughts improvement,[5],1
same,MADRS Reduced Sleep percentage improvement,"IDR group n=8, day 1",52.00%
same,MADRS Reduced Sleep percentage improvement,"IDR group n=8, day 7",64.00%
same,MADRS Concentration Difficulties improvement,[6],19
same,MADRS Inability to Feel improvement,[6],24
same,MADRS Inner Tension improvement,[6],15
same,MADRS Lassitude improvement,[6],17
same,MADRS Pessimistic Thoughts improvement,[6],21
same,MADRS Suicidal Thoughts improvement,[6],8
same,BPRS Anxiety improvement,[7],18
same,BPRS Blunted Affect improvement,[7],4
same,BPRS Emotional Withdrawal improvement,[7],5
same,BPRS Guilt Feelings improvement,[7],20
same,BPRS Tension improvement,[7],5
same,BPRS Anxiety score,[8],37
same,BPRS Blunted Affect score,[8],15
same,BPRS Emotional Withdrawal score,[8],13
same,BPRS Guilt Feelings score,[8],34
same,BPRS Tension score,[8],16
same,MADRS Concentration Difficulties score,[8],30
same,MADRS Inability to Feel score,[8],36
same,MADRS Inner Tension score,[8],26
same,MADRS Lassitude score,[8],27
same,MADRS Pessimistic Thoughts score,[8],28
same,MADRS Reduced Sleep score,[8],25
same,MADRS Suicidal Thoughts score,[8],11
same,BPRS Anxiety improvement,[9],21
same,BPRS Blunted Affect improvement,[9],7
same,BPRS Emotional Withdrawal improvement,[9],5
same,BPRS Guilt Feelings improvement,[9],23
same,BPRS Tension improvement,[9],5
same,MADRS Concentration Difficulties improvement,[9],29
same,MADRS Inability to Feel improvement,[9],34
same,MADRS Inner Tension improvement,[9],20
same,MADRS Lassitude improvement,[9],22
same,MADRS Pessimistic Thoughts improvement,[9],24
same,MADRS Reduced Sleep improvement,[9],13
same,MADRS Suicidal Thoughts improvement,[9],10
same,BPRS Anxiety improvement,[10],20
same,BPRS Blunted Affect improvement,[10],7
same,BPRS Emotional Withdrawal improvement,[10],5
same,BPRS Guilt Feelings improvement,[10],24
same,BPRS Tension improvement,[10],6
same,MADRS Concentration Difficulties improvement,[10],21
same,MADRS Inability to Feel improvement,[10],30
same,MADRS Inner Tension improvement,[10],14
same,MADRS Lassitude improvement,[10],24
same,MADRS Pessimistic Thoughts improvement,[10],25
same,MADRS Reduced Sleep improvement,[10],16
same,MADRS Suicidal Thoughts improvement,[10],8
same,mean MADRS change from baseline,"Part A, 12 mg group, day seven",−21.0
same,"mean MADRS change from baseline, percent","Part A, 12 mg group, day seven",−65%
same,patients with at least one ADR,"Part A, 12 mg single dose",3 of 4
same,further patients with MADRS clinical response,"Part A, 18 mg group n=4, day seven after dosing",25%
same,"mean MADRS change from baseline, percent","Part A, 18 mg group, day seven",−41%
same,patients with at least one ADR,"Part A, 18 mg single dose",3 of 4
same,patients with MADRS remission (total score less than or equal to 10),"Part B, IDR n=8, day seven",87.5%

# Source: patent US20250241895A1 (GH RESEARCH IRELAND LIMITED, priority 2022, published 2025)
